System: DNA repair protein genes
Assay: DNA chip mRNA expression in yeast, DNA repair protein genes (Table 3)
Type: cell-based, Saccharomyces cerevisiae S288C
Details: incubated two hours, concentrations as in the 1st table
Description: Yeast (Saccharomyces cerevisiae S288C (α SUC2mal mel gap2 CUP1)) were incubated at 25° C. on YPD medium (yeast extract 1%, polypepton 2%, glucose 2%). One of toxic chemical substances was added to the cells at logarithmic growth phase, and the cells were further incubated for two hours. Cells were cultured without any chemical substance in the same condition, and were used as control. Concentrations of the chemical substances were defined to inhibit the growth of the yeast but not lead to death.
After completion of the incubation, the culture was centrifuged to collect the cells. To the cells, sodium acetate buffer (50 mM sodium acetate, 10 mM EDTA, 1% SDS) was added, and the mixture was shaken at 65° C. for five minutes, followed by returning to room temperature, and obtaining the supernatant, of which the procedures were repeated two times. To the supernatant, ½ amount of a solution of phenol/chloroform was added, and the mixture was centrifuged to give a supernatant, which was added with an equal amount of chloroform, and the mixture was centrifuged to give a supernatant. To the supernatant, an equal amount of isopropanol containing 0.3 M sodium acetate was added, and the mixture was allowed to stand at room temperature for 30 minutes, after which the mixture was centrifuged to give a sediment of the whole RNAs. Seventy % ethanol was added to the sediment, and the mixture was again centrifuged to give a sediment, which was then dried and dissolved in water. mRNA was isolated from the whole RNAs as followings. In view of the fact that a poly A chain is attached to the 3′ terminus of mRNA, a polynucleotide having a poly T structure which was immobilized on the surface of latex beads was used to trap the mRNA, and then the mRNA was washed and eluted with spine column (Oligotex-dT30<Super>mRNA Purification Kit, Takara). Reverse transcription of the mRNA was conducted with a reverse transcriptase (Super Script II Reverse Transcriptase; catalogue No. 18064-014, GibcoBRL) using fluorescence-labeled nucleotides to give cDNAs that were introduced with Cy3-dUTP or Cy5-dUTP during the reverse transcription.
The labeled cDNAs were dissolved in TE buffer (10mM Tris-HCl/1 mM EDTA, pH8.0), and the solution was dropped on the DNA chip containing the whole genes of yeast (DNA Chip Research Inc. Japan) so that the cDNAs were hybridized on the DNA chip at 65° C. for over 12 hours. The fluoresces intensity of the DNA chip was read with a scanner, and the ratio relative to the fluorescence intensity resulting from the absence of chemical substance was estimated as the following, which is shown in Tables 1 to 9: […]

CN(C)C(=S)SSC(=S)N(C)C [(10), Tetramethylthiuram disulfide]
The level of expressed mRNA in the presence of chemical substance/The level of expressed mRNA in the absence of chemical substance (yeast gene YAL015C): 2.7
The level of expressed mRNA in the presence of chemical substance/The level of expressed mRNA in the absence of chemical substance (yeast gene YAR007C): 1.7
The level of expressed mRNA in the presence of chemical substance/The level of expressed mRNA in the absence of chemical substance (yeast gene YBL019W): 1.4
The level of expressed mRNA in the presence of chemical substance/The level of expressed mRNA in the absence of chemical substance (yeast gene YBR073W): 1.8
The level of expressed mRNA in the presence of chemical substance/The level of expressed mRNA in the absence of chemical substance (yeast gene YBR272C): 2.7
The level of expressed mRNA in the presence of chemical substance/The level of expressed mRNA in the absence of chemical substance (yeast gene YCR014C): 1.0
The level of expressed mRNA in the presence of chemical substance/The level of expressed mRNA in the absence of chemical substance (yeast gene YDL017W): 1.8
The level of expressed mRNA in the presence of chemical substance/The level of expressed mRNA in the absence of chemical substance (yeast gene YDL059C): 7.8
The level of expressed mRNA in the presence of chemical substance/The level of expressed mRNA in the absence of chemical substance (yeast gene YDL200C): 1.8
The level of expressed mRNA in the presence of chemical substance/The level of expressed mRNA in the absence of chemical substance (yeast gene YDR054C): 3.2
The level of expressed mRNA in the presence of chemical substance/The level of expressed mRNA in the absence of chemical substance (yeast gene YDR369C): 1.8
The level of expressed mRNA in the presence of chemical substance/The level of expressed mRNA in the absence of chemical substance (yeast gene YEL019C): 0.7
The level of expressed mRNA in the presence of chemical substance/The level of expressed mRNA in the absence of chemical substance (yeast gene YEL037C): 1.2
The level of expressed mRNA in the presence of chemical substance/The level of expressed mRNA in the absence of chemical substance (yeast gene YER162C): 1.6
The level of expressed mRNA in the presence of chemical substance/The level of expressed mRNA in the absence of chemical substance (yeast gene YFL014W): 5.8
The level of expressed mRNA in the presence of chemical substance/The level of expressed mRNA in the absence of chemical substance (yeast gene YGL058W): 1.8
The level of expressed mRNA in the presence of chemical substance/The level of expressed mRNA in the absence of chemical substance (yeast gene YGL091C): 6.0
The level of expressed mRNA in the presence of chemical substance/The level of expressed mRNA in the absence of chemical substance (yeast gene YGL127C): 1.5
The level of expressed mRNA in the presence of chemical substance/The level of expressed mRNA in the absence of chemical substance (yeast gene YGL163C): 2.3
The level of expressed mRNA in the presence of chemical substance/The level of expressed mRNA in the absence of chemical substance (yeast gene YGL249W): 2.4
The level of expressed mRNA in the presence of chemical substance/The level of expressed mRNA in the absence of chemical substance (yeast gene YGR180C): 1.5
The level of expressed mRNA in the presence of chemical substance/The level of expressed mRNA in the absence of chemical substance (yeast gene YGR231C): 2.3
The level of expressed mRNA in the presence of chemical substance/The level of expressed mRNA in the absence of chemical substance (yeast gene YGR258C): 1.5
The level of expressed mRNA in the presence of chemical substance/The level of expressed mRNA in the absence of chemical substance (yeast gene YHR164C): 3.1
The level of expressed mRNA in the presence of chemical substance/The level of expressed mRNA in the absence of chemical substance (yeast gene YIL036W): 2.7
The level of expressed mRNA in the presence of chemical substance/The level of expressed mRNA in the absence of chemical substance (yeast gene YIL072W): 2.1
The level of expressed mRNA in the presence of chemical substance/The level of expressed mRNA in the absence of chemical substance (yeast gene YIL143C): 3.5
The level of expressed mRNA in the presence of chemical substance/The level of expressed mRNA in the absence of chemical substance (yeast gene YIL153W): 1.1
The level of expressed mRNA in the presence of chemical substance/The level of expressed mRNA in the absence of chemical substance (yeast gene YIR002C): 1.4
The level of expressed mRNA in the presence of chemical substance/The level of expressed mRNA in the absence of chemical substance (yeast gene YJL026W): 1.1
The level of expressed mRNA in the presence of chemical substance/The level of expressed mRNA in the absence of chemical substance (yeast gene YJR046W): 2.4
The level of expressed mRNA in the presence of chemical substance/The level of expressed mRNA in the absence of chemical substance (yeast gene YJR052W): 2.3
The level of expressed mRNA in the presence of chemical substance/The level of expressed mRNA in the absence of chemical substance (yeast gene YKL145W): 2.7
The level of expressed mRNA in the presence of chemical substance/The level of expressed mRNA in the absence of chemical substance (yeast gene YLR103C): 0.5
The level of expressed mRNA in the presence of chemical substance/The level of expressed mRNA in the absence of chemical substance (yeast gene YLR233C): 0.5
The level of expressed mRNA in the presence of chemical substance/The level of expressed mRNA in the absence of chemical substance (yeast gene YLR288C): 1.3
The level of expressed mRNA in the presence of chemical substance/The level of expressed mRNA in the absence of chemical substance (yeast gene YML032C): 1.1
The level of expressed mRNA in the presence of chemical substance/The level of expressed mRNA in the absence of chemical substance (yeast gene YML058W): 1.2
The level of expressed mRNA in the presence of chemical substance/The level of expressed mRNA in the absence of chemical substance (yeast gene YMR035W): 1.6
The level of expressed mRNA in the presence of chemical substance/The level of expressed mRNA in the absence of chemical substance (yeast gene YMR072W): 1.2
The level of expressed mRNA in the presence of chemical substance/The level of expressed mRNA in the absence of chemical substance (yeast gene YMR096W): 3.7
The level of expressed mRNA in the presence of chemical substance/The level of expressed mRNA in the absence of chemical substance (yeast gene YMR284W): 1.8
The level of expressed mRNA in the presence of chemical substance/The level of expressed mRNA in the absence of chemical substance (yeast gene YNL213C): 1.5
The level of expressed mRNA in the presence of chemical substance/The level of expressed mRNA in the absence of chemical substance (yeast gene YNL250W): 2.3
The level of expressed mRNA in the presence of chemical substance/The level of expressed mRNA in the absence of chemical substance (yeast gene YNL261W): 1.5
The level of expressed mRNA in the presence of chemical substance/The level of expressed mRNA in the absence of chemical substance (yeast gene YNL312W): 2.5
The level of expressed mRNA in the presence of chemical substance/The level of expressed mRNA in the absence of chemical substance (yeast gene YOL043C): 1.8
The level of expressed mRNA in the presence of chemical substance/The level of expressed mRNA in the absence of chemical substance (yeast gene YOR005C): 1.5
The level of expressed mRNA in the presence of chemical substance/The level of expressed mRNA in the absence of chemical substance (yeast gene YOR386W): 3.0
The level of expressed mRNA in the presence of chemical substance/The level of expressed mRNA in the absence of chemical substance (yeast gene YPL022W): 1.6
The level of expressed mRNA in the presence of chemical substance/The level of expressed mRNA in the absence of chemical substance (yeast gene YPL164C): 2.0
The level of expressed mRNA in the presence of chemical substance/The level of expressed mRNA in the absence of chemical substance (yeast gene YPL194W): 3.1
The level of expressed mRNA in the presence of chemical substance/The level of expressed mRNA in the absence of chemical substance (yeast gene YPR025C): 1.7

From US8192962B2, “Processes for detecting toxic substances” (Daikin Industries, Ltd., priority 2001, dated 2012)
